Test results from patent publication US9090583B2, “Benzopyrone estrogen receptor regulator” (BEIJING SHENOGEN PHARMA GROUP LTD., priority 2010, dated 2015).
≈ marks a conversion by molar mass, not a printed value. Like-named read-outs stand apart in the source and are kept apart here.

Columns and labels:
[1] = tested on: MDA-MB-231 cells; assay: CellTiter-Glo Luminescent Cell Viability Assay on ER-negative breast cancer MDA-MB-231 cells; assay type: cell-based; conditions: average ± standard deviation when tested more than 3 times, read-out: Inhibition of the viability of breast cancer cells, IC50
How it was run: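 Cells seeded at 6×10^3 per well in DMEM with 10% FCS and exposed 72 h to compound at 0 to 100 μM (twelve concentrations, DMSO vehicle). Viability measured by CellTiter-Glo luminescence.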

[2] = tested on: MCF7 cells; assay: CellTiter-Glo Luminescent Cell Viability Assay on ER-positive breast cancer MCF-7 cells; assay type: cell-based, human; conditions: 72 hours, average ± standard deviation when tested more than 3 times, read-out: Inhibition of the viability of breast cancer cells, IC50
How it was run: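 MCF7 cells (DMEM, 10% FCS, 37 °C) treated 72 h with compound at 0–100 μM (0.3, 0.5, 1, 2, 3, 5, 10, 20, 30, 50, 100 μM). Viability measured by CellTiter-Glo luminescence.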

[3] = tested on: HEC-1A cells; assay: CellTiter-Glo Luminescent assay on endometrial cancer HEC-1A cells; assay type: cell-based, human; conditions: 72 hours, read-out: Inhibition of the viability of endometrial cancer cells, IC50
Experimental: CellTiter-Glo® Luminescent Assay to Measure the Inhibitory Activity of the Compounds on In Vitro Growth of Endometrial Cancer HEC-1A Cells
(§1) HEC-1A cells are endometrial cancer cell lines only expressing ER-36. Human endometrial cancer HEC-1A cells were obtained from ATCC and maintained in DMEM and 10% fetal calf serum at 37° C., under 5% CO2 atmosphere. The cells were seeded on 96-well plate at a density of 6×10^3 cells per well. HEC-1A cells were treated with a test compound dissolved in DMSO at the concentrations of zero, 0.3 μM, 0.5 μM, 1 μM, 2 μM, 3 μM, 5 μM, 20 μM, 30 μM, 50 μM and 100 μM for 72 hours. Treated cells were examined by CellTiter-Glo® Luminescent Cell Viability Assay Kit (Promega), and luminescence values were recorded with Envision.

[4] = tested on: CoC1 cells; assay: CellTiter-Glo Luminescent Cell Viability Assay on ovary cancer CoC1 cells; assay type: cell-based; conditions: 72 hours, read-out: Inhibition of the viability of ovary cancer cells, IC50
Experimental: B: In Vitro CellTiter-Glo® Luminescent Cell Viability Assay on Ovary Cancer CoC1 Cells
as §1, with “The ovary” for “HEC-1A cells are endometrial”, “CoC1” for “cell lines only expressing ER-36. Human endometrial cancer HEC-1A”, “Cancer hospital, Chinese Academy of Medical Sciences” for “ATCC”, “RPMI-1640” for “DMEM”, “CoC1” for “HEC-1A”, “10” for “20”

[5] = tested on: K562 cells; assay: CellTiter-Glo Luminescent Cell Viability Assay on leukemia K562 cells; assay type: cell-based, human; conditions: 72 hours, read-out: Inhibition of the viability of leukemia cells, IC50
Experimental: A: In Vitro CellTiter-Glo® Luminescent Cell Viability Assay on Leukemia K562 Cells
(§2) The leukemia K562 cells were obtained from ATCC and maintained in IMDM and 10% fetal calf serum at 37° C., under 5% CO2 atmosphere. The cells were seeded on 96-well plate at a density of 6×10^3 cells per well. K562 cells were treated with a test compound dissolved in DMSO at the concentrations of zero, 0.3 μM, 0.5 μM, 1 μM, 2 μM, 3 μM, 5 μM, 10 μM, 20 μM, 30 μM, 50 μM and 100 μM for 72 hours. Treated cells were examined by CellTiter-Glo® Luminescent Cell Viability Assay Kit (Promega), and luminescence values were recorded with Envision.

[6] = tested on: HL-60 cells; assay: CellTiter-Glo Luminescent Cell Viability Assay on leukemia HL-60 cells; assay type: cell-based, human; conditions: 72 hours, read-out: Inhibition of the viability of leukemia cells, IC50
Experimental: B: In Vitro CellTiter-Glo® Luminescent Cell Viability Assay on Leukemia HL-60 Cells
as §2, with “HL-60” for “K562”

[7] = tested on: Molt-4 cells; assay: CellTiter-Glo Luminescent Cell Viability Assay on leukemia Molt-4 cells; assay type: cell-based; conditions: 72 hours, read-out: Inhibition of the viability of leukemia cells, IC50
Experimental: C: In Vitro CellTiter-Glo® Luminescent Cell Viability Assay on Leukemia Molt-4 Cells
as §2, with “leukemia Molt-4” for “leukemia K562”, “in RPMI-1640” for “in IMDM”, “well. […]” for “well. K562”

[8] = tested on: Hep3B2.1-7 cells; assay: MTT assay, in vitro growth of liver cancer Hep3B2.1-7 cells; assay type: cell-based; conditions: 72 hours
Experimental: The liver cancer Hep3B2.1-7 cells were obtained from ATCC. Cells were incubated in 1640 culture medium with 5% fetal calf serum and 100 U/ml double-antibody in a cell incubator at 37° C., 5% CO2 atmosphere and passaged via conventional methods. The sample was dissolved in DMSO, formulated into 50 mg/ml stocking solution, and stored at 4° C. The test solutions at 50, 25, 12.5 and 6.25 μg/ml were formulated with culture medium immediately before use.
The adherent cells were digested with cell digestive solution, and then the exfoliated cells were collected and counted. The cell suspension was formulated with 1640 culture medium containing 5% fetal calf serum (5.0×10^4/ml). The cell suspension was seeded on 96-well plate with 100 μl/well, and maintained in a cell incubator at 37° C., 5% CO2 atmosphere for 24 hours. After that, the compounds at various concentrations were added, where solvent was taken as negative control and Taxol as positive control. 10 μl MTT (5 mg/ml) was added after 72 hours. The supernatant was removed after cultivation for 3 hours more, 150 μl DMSO was added and the formazan was dissolved on shaking. OD values were measured at 570 nm after homogeneous mixing, and inhibition rate and IC50 values were calculated based on the mean of OD values from 3 wells.

[9] = target: T1, ER-α36 (Homo sapiens, UniProt P03372); assay: Regulation of ER-α36 protein expression in HEC-1A cells (Western blot); assay type: cell-based; conditions: serum-depleted HEC-1A cells; 1, 10, 50 and 100 nM; 24 and 48 hours; effect above the concentration of 50 nM
T1 construct: endogenous in cells; host or cells: HEC-1A human endometrial cancer cells
T1 sequence (P03372 1-310 isoform P03372-4): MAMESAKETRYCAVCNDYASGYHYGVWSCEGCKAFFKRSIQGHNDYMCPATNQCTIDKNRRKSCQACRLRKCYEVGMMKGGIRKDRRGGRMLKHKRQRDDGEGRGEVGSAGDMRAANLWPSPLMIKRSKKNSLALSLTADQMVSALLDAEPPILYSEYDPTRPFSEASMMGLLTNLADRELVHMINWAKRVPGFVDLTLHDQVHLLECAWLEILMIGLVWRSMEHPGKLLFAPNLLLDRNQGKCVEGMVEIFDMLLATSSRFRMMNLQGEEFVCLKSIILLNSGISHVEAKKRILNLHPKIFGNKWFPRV
Experimental: Taking endometrial cancer HEC-1A cells as an example, serum-depleted HEC-1A cells were treated with compounds at concentrations of 1, 10, 50 and 100 nM for 24 hours and 48 hours. The treated cells were washed with PBS and lysed with lysis buffer (a mixture of 1*PBS (pH7.4), 1% NP-40, 0.7 mMEDTA, and protease inhibitor from Roche). The lysates were boiled for 5 minutes in a SDS gel loading buffer (25 mM Tris-Cl pH 6.8; 10% SDS; 2% glycerol; 20% β-mercaptoethanol; 0.01% bromophenol blue) and separated on a 10% SDS-PAGE gel. After electrophoresis, the proteins were transferred onto PVDF membrane (Millipore Transfer Membrane). The membrane was probed with Rabbit anti-ER36 antibody which is specific to 20 amino acid polypeptides at C-terminus of ER-α36. Then the membrane was incubated with an HRP-conjugated secondary antibody and visualized with ECL detection reagents.

Molecule | IC50 ([1]; 72 hours) | IC50 [2] | IC50 [3] | IC50 [4] | IC50 [5] | IC50 [6] | IC50 [7] | Inhibition on liver cancer cells, IC50 [8] | IC50 ([1]; Homo sapiens, MDA-MB-231, 72 h) | IC50 ([8]; read-out: Inhibition on liver cancer cells, IC50) | expression of ER-36 in cells [9]
2-(-fluoro-4-chlorophenyl)-5,7-dihydroxy-3-methoxy-6,8-di(3-methyl-2-buten-1-yl)-4H-benzopyran-4-one [Compound 5] | 7.03 ± 1.06 µM | 6.73 ± 1.58 µM | 7.14 µM | 6.91 µM | 12 µM | 8.96 µM | 9.13 µM | 1.45 µg/mL |  |  | 
COc1c(-c2ccc(C(F)(F)F)c(F)c2)oc2c(CC=C(C)C)c(O)c(CC=C(C)C)c(O)c2c1=O [Compound 6, 2-(3-fluoro-4-trifluoromethylphenyl)-5,7-dihydroxy-3-methoxy-6,8-di(3-methyl-2-butylene-1-yl)-4H-benzopyran-4-one] | 7.06 ± 2.13 µM | 5.14 ± 0.47 µM | 4.02 µM |  | > 100 µM | > 100 µM | > 100 µM |  |  |  | 
COc1c(-c2ccc(C(F)(F)F)cc2)oc2c(CC=C(C)C)c(O)c(CC=C(C)C)c(O)c2c1=O [Compound 15, 2-(4-trifluoromethylphenyl)-5,7-dihydroxy-3-methoxy-6,8-di(3-methyl-2-butylene-1-yl)-4H-benzopyran-4-one] | 9.91 ± 0.11 µM | 8.28 ± 2.2 µM | 8.35 µM |  | 12.4 µM | 15.7 µM | 13.2 µM | 0.00138 µg/mL |  |  | 
COc1c(-c2ccc3nccnc3c2)oc2c(CC=C(C)C)c(O)c(CC=C(C)C)c(O)c2c1=O [Compound 18, 2-(quinoxalin-6-yl)-5,7-dihydroxy-3-methoxy-6,8-di(3-methyl-2-butylene-1-yl)-4H-benzopyran-4-one] | 11.9 ± 0.4 µM | 12.03 ± 0.09 µM | 13.8 µM |  | > 100 µM | > 100 µM | 14.2 µM |  |  |  | 
CC(C)=CCc1c(O)c(CC=C(C)C)c2oc(-c3ccc(C(F)(F)F)cc3)c(O)c(=O)c2c1O [Compound 98, 2-(4-trifluoromethylphenyl)-3,5,7-trihydroxy-6,8-di(3-methyl-2-buten-1-yl)-4H-benzopyran-4-one] |  |  |  |  |  |  |  |  | 1.62 µM | 0.0144 µg/mL (≈ 0.0303 µM) | dramatically reduced
